Laboratory results taken from patent US10287295B2, “TGF-β inhibitors” (Rigel Pharmaceuticals, Inc., priority 2015, dated 2019).

How the values were obtained:
[1] = test system: GDF8 signaling (GDF pSMAD, MPC11); assay: AlphaScreen SureFire SMAD3 (p-Ser423/425) assay, inhibition of GDF8 signaling; assay type: cell-based; settings: Mus musculus, MPC-11, inhibition of GDF8 signaling, p-SMAD3 readout
[2] = test system: TGF-β signaling (TGF-β pSMAD, MPC-11); assay: AlphaScreen SureFire SMAD3 (p-Ser423/425) assay, inhibition of TGF-β signaling; assay type: cell-based; settings: Mus musculus, MPC-11, inhibition of TGF-β signaling, p-SMAD3 readout

SMILES | IC50 [1] [nM] | IC50 [2] [nM]
CCc1nc(-c2ccc(F)c(C)c2)c(-c2ccc3nccn3c2)[nH]1 [Compound 110, 6-(2-Ethyl-4-(4-fluoro-3-methylphenyl)-1H-imidazol-5-yl)imidazo[1,2-a]pyridine] | 250 | 1050
CCc1nc(-c2ccc(F)c(C)c2)c(-c2ccc3ncccc3c2)[nH]1 [Compound 111, 6-(2-Ethyl-4-(4-fluoro-3-methylphenyl)-1H-imidazol-5-yl)quinoline] | 790 | 4480
CCc1nc(-c2ccc(F)c(C)c2)c(-c2ccc3nccnc3c2)[nH]1 [Compound 112, 6-(2-Ethyl-4-(4-fluoro-3-methylphenyl)-1H-imidazol-5-yl)quinoxaline] | 280 | 1370
CCc1nc(-c2cccc(C)c2)c(-c2ccc3[nH]ncc3c2)[nH]1 [Compound 113, 5-(2-Ethyl-4-(m-tolyl)-1H-imidazol-5-yl)-1H-indazole] | 460 | 3110
CCc1nc(-c2cccc(C)c2)c(-c2ccc3cn[nH]c3c2)[nH]1 [Compound 114, 6-(2-Ethyl-4-(m-tolyl)-1H-imidazol-5-yl)-1H-indazole] | 180 | 1130
CCc1nc(-c2cccc(C)c2)c(-c2ccc3ncnn3c2)[nH]1 [Compound 115, 6-(2-Ethyl-4-(m-tolyl)-1H-imidazol-5-yl)-[1,2,4]triazolo[1,5-a]pyridine] | 160 | 750
CCc1nc(-c2cccc(C)c2)c(-c2ccc3ncsc3c2)[nH]1 [Compound 116, 6-(2-Ethyl-4-(m-tolyl)-1H-imidazol-5-yl)benzo[d]thiazole] | 280 | 1520
CCc1nc(-c2cccc(C)c2)c(-c2ccc3nccn3c2)[nH]1 [Compound 117, 6-(2-Ethyl-4-(m-tolyl)-1H-imidazol-5-yl)imidazo[1,2-a]pyridine] | 330 | 2180
CCc1nc(-c2cccc(C)c2)c(-c2ccc3nccnc3c2)[nH]1 [Compound 118, 6-(2-Ethyl-4-(m-tolyl)-1H-imidazol-5-yl)quinoxaline] | 230 | 1390
CCc1nc(-c2ccc(F)cc2)c(-c2ccc3[nH]ncc3c2)[nH]1 [Compound 119, 5-(2-Ethyl-4-(4-fluorophenyl)-1H-imidazol-5-yl)-1H-indazole] | 410 | 4740
CCc1nc(-c2ccc(F)cc2)c(-c2ccc3cn[nH]c3c2)[nH]1 [Compound 120, 6-(2-Ethyl-4-(4-fluorophenyl)-1H-imidazol-5-yl)-1H-indazole] | 470 | 8160
CCc1nc(-c2ccc(F)cc2)c(-c2ccc3ncnn3c2)[nH]1 [Compound 121, 6-(2-Ethyl-4-(4-fluorophenyl)-1H-imidazol-5-yl)-[1,2,4]triazolo[1,5-a]pyridine] | 460 | 2070
CCc1nc(-c2ccc(F)cc2)c(-c2ccc3ncsc3c2)[nH]1 [Compound 122, 6-(2-Ethyl-4-(4-fluorophenyl)-1H-imidazol-5-yl)benzo[d]thiazole] | 580 | 4530
CCc1nc(-c2ccc(F)cc2)c(-c2ccc3nccn3c2)[nH]1 [Compound 123, 6-(2-Ethyl-4-(4-fluorophenyl)-1H-imidazol-5-yl)imidazo[1,2-a]pyridine] | 740 | 9370
CCc1nc(-c2cccc(Cl)c2)c(-c2ccc3[nH]ncc3c2)[nH]1 [Compound 124, 5-(4-(3-Chlorophenyl)-2-ethyl-1H-imidazol-5-yl)-1H-indazole] | 540 | 1340
CCc1nc(-c2cccc(Cl)c2)c(-c2ccc3ncnn3c2)[nH]1 [Compound 125, 6-(4-(3-Chlorophenyl)-2-ethyl-1H-imidazol-5-yl)-[1,2,4]triazolo[1,5-a]pyridine] | 50 | 120

SMILES | IC50 [1] [nM] | IC50 [2] [nM]
CCc1nc(-c2cccc(Cl)c2)c(-c2ccc3ncsc3c2)[nH]1 [Compound 126, 6-(4-(3-Chlorophenyl)-2-ethyl-1H-imidazol-5-yl)benzo[d]thiazole] | 90 | 340
CCc1nc(-c2cccc(Cl)c2)c(-c2ccc3nccn3c2)[nH]1 [Compound 127, 6-(4-(3-Chlorophenyl)-2-ethyl-1H-imidazol-5-yl)imidazo[1,2-a]pyridine] | 190 | 570
CCc1nc(-c2cccc(Cl)c2)c(-c2ccc3ncccc3c2)[nH]1 [Compound 128, 6-(4-(3-Chlorophenyl)-2-ethyl-1H-imidazol-5-yl)quinoline] | 460 | 1480
CCc1nc(-c2cccc(Cl)c2)c(-c2ccc3nccnc3c2)[nH]1 [Compound 129, 6-(4-(3-Chlorophenyl)-2-ethyl-1H-imidazol-5-yl)quinoxaline] | 290 | 1340
CCc1nc(-c2ccc(F)c(F)c2)c(-c2ccc3[nH]ncc3c2)[nH]1 [Compound 130, 5-(4-(3,4-Difluorophenyl)-2-ethyl-1H-imidazol-5-yl)-1H-indazole] | 650 | 2320
CCc1nc(-c2ccc(F)c(F)c2)c(-c2ccc3cn[nH]c3c2)[nH]1 [Compound 131, 6-(4-(3,4-Difluorophenyl)-2-ethyl-1H-imidazol-5-yl)-1H-indazole] | 920 | 3910
CCc1nc(-c2ccc(F)c(F)c2)c(-c2ccc3ncnn3c2)[nH]1 [Compound 132, 6-(4-(3,4-Difluorophenyl)-2-ethyl-1H-imidazol-5-yl)-[1,2,4]triazolo[1,5-a]pyridine] | 550 | 1390
CCc1nc(-c2ccc(F)c(F)c2)c(-c2ccc3ncsc3c2)[nH]1 [Compound 133, 6-(4-(3,4-Difluorophenyl)-2-ethyl-1H-imidazol-5-yl)benzo[d]thiazole] | 360 | 2210
CCc1nc(-c2ccc(F)c(F)c2)c(-c2ccc3nccn3c2)[nH]1 [Compound 134, 6-(4-(3,4-Difluorophenyl)-2-ethyl-1H-imidazol-5-yl)imidazo[1,2-a]pyridine] | 870 | 2540
CCc1nc(-c2ccc(F)c(F)c2)c(-c2ccc3nccnc3c2)[nH]1 [Compound 135, 6-(4-(3,4-Difluorophenyl)-2-ethyl-1H-imidazol-5-yl)quinoxaline] | 770 | 3420
CCc1nc(-c2cccc(F)c2)c(-c2ccc3ncnn3c2)[nH]1 [Compound 136, 6-(2-Ethyl-4-(3-fluorophenyl)-1H-imidazol-5-yl)-[1,2,4]triazolo[1,5-a]pyridine] | 750 | 2300
CCc1nc(-c2cccc(F)c2)c(-c2ccc3ncsc3c2)[nH]1 [Compound 137, 6-(2-Ethyl-4-(3-fluorophenyl)-1H-imidazol-5-yl)benzo[d]thiazole] | 570 | 2540
CCc1nc(-c2cccc(F)c2)c(-c2ccc3nccn3c2)[nH]1 [Compound 138, 6-(2-Ethyl-4-(3-fluorophenyl)-1H-imidazol-5-yl)imidazo[1,2-a]pyridine] | 730 | 3260
CCc1nc(-c2cc(F)cc(Cl)c2)c(-c2ccc3[nH]ncc3c2)[nH]1 [Compound 139, 5-(4-(3-Chloro-5-fluorophenyl)-2-ethyl-1H-imidazol-5-yl)-1H-indazole] | 650 | 2030
CCc1nc(-c2cc(F)cc(Cl)c2)c(-c2ccc3ncsc3c2)[nH]1 [Compound 140, 6-(4-(3-Chloro-5-fluorophenyl)-2-ethyl-1H-imidazol-5-yl)benzo[d]thiazole] | 620 | 2220
